Assays:
[1] = Phase 1 SAD/MAD/food effect trial: pharmacokinetics; type: in vivo, human
Experimental: This was a 3-part Phase 1 clinical trial in healthy participants aged 18-55 years. Parts A and B were randomized, placebo-controlled and evaluated the effects of single (2.5-150 mg) and multiple (30-120 mg, 14 days QD (every day)) ascending oral doses of Compound 1, respectively. Part C was an open-label, randomized, crossover design evaluating the PK of a single oral dose (90 mg) in fasted and fed states. In Parts A (n=64) and B (n=32), participants were randomized 3:1 to Compound 1 or placebo (n=8/cohort). In Part C (n=16), participants were randomized 1:1 to one of two treatment sequences receiving a single dose of 90 mg Compound 1 in the fed (following a high-fat/high calorie meal) or fasted (≥10 hours after the last, and 4 hours before the next, meal) state.

[2] = tested on: healthy participants; test: 2-part Phase 1 trial (28 days; OXC combination): safety and tolerability; type: in vivo, human
From the text: (§1) This was a 2-part randomized, placebo-controlled Phase 1 trial in healthy participants aged 18-55 years. […] PD effects were examined on quantitative EEG (qEEG; resting and vigilant conditions) and stimulated EEG using auditory steady state response (ASSR). A total of 48 participants were enrolled; Part A, n=30; Part B, n=18.

[3] = biological target: T1, human NaV1.6 (Homo sapiens, UniProt Q9UQD0); test: Peak INa voltage-dependent block (VDB), PatchXpress patch clamp; type: cell-based
T1 construct: stably expressing either human NaV1.6 (NP_055006); expressed in transfected cells
Experimental: HEK-293 cell lines stably expressing either human NaV1.6 (NP_055006), mouse NaV1.6 (NP_035453.2), or rat NaV1.6 (NP_062139) were used. All cells were seeded at 2×10^6 cells per Nunc T75 flask for 2 days in culture. At time of harvest for assays, the cell counts were approximately 6×10^6 cells. Cells were washed (1×) in DPBS (Hyclone, Cat #SH30028.03) for approximately 30 seconds. 1 mL of 1×0.05% Trypsin-EDTA (GIBCO Cat #25300-054) was added and swirled around to cover the bottom of the flask and was allowed to sit on the cells for approximately 4 minutes (±90% of the cells were lifted by light tapping of the flask). 10 mL of warmed media (DMEM high glucose media Hyclone, SH30022.02 supplemented with 10% Fetal Bovine Serum, 2 mM Sodium Pyruvate, 10 mM HEPES and 400 μg/mL G418) was added to inactivate the trypsin. Cells were triturated until a single cell suspension was achieved. A cell count was performed and cells were aliquoted into a 250 ml centrifuge tube at a concentration of 2×10^5/mL in +30 ml of prewarmed media. The 250 mL centrifuge tube was placed on a rocker in an incubator set at 28° C. and gently rocked for approximately 1 hour to allow cells to recover. Cell aliquots of 5 mL (1×10^6 cells) were placed in a 15 mL centrifuge tube and spun at 100×g for 2 minutes. Supernatant was removed leaving a cell pellet. 100 μL of external recording solution was added to the pellet and triturated 20 times to achieve a single cell suspension and then transferred to a 1.5 mL tube for placement in the PatchXpress® (Molecular Devices).
Compound 1 was provided as powder and prepared as 10 mM DMSO stocks in 1 dram glass vials prior to assay. Immediately prior to assay, Compound 1 was diluted with DMSO to 300×, the designated final assay concentration. Assay dilutions (1× concentration) were prepared by pipetting 3 μL of diluted Compound 1 into 897 μL of extracellular solution in a 1 mL glass shell vial. Vials were capped and vortexed until initiation of the PatchXpress® (Molecular Devices) recording protocol.
The same intracellular recording solution was used for the persistent and peak INa assays, which contained: 135 mM CsF, 10 mM CsCl, 5 mM NaCl, 10 mM HEPES, 5 mM EGTA at a pH of 7.4 (adjusted with CsOH) and a measured osmolarity of 298 mOsm (adjusted with mannitol). For the persistent INa assay, the external recording solution contained: 135 mM NaCl, 5.4 mM KCl, 5 mM glucose, 2 mM CaCl2), 1 mM MgCl2, 10 mM HEPES, and 200 nM ATX-II (sea anemone toxin, Alomone Labs; Jerusalem, Israel) at a pH of 7.4 (adjusted with NaOH) and a measured osmolarity of 300 mOsm (adjusted with mannitol). For the peak INa assays, the external recording solution contained: 100 mM NaCl, 35 mM NMDG, 5.4 mM KCl, 5 mM glucose, 2 mM CaCl2), 1 mM MgCl2, and 10 mM HEPES at a pH of 7.4 (adjusted with NaOH) and a measured osmolarity of 300 mOsm (adjusted with mannitol).
All studies were performed using the PatchXpress® (Molecular Devices) automated patch clamp platform (Molecular Devices) using the whole cell configuration. Recordings were performed at room temperature. Data were collected using Patch Commander software (Molecular Devices) and processed using DataXpress 2.0 (Molecular Devices). Cell acceptance criteria were continuously monitored by custom scripts during the recording. Acceptance criteria for all assays were: baseline peak INa>800 pA, Rseal>200 MΩ, and, where appropriate, persistent INa>100 pA. Compensation was 50% and leak subtraction was not used. Currents were filtered at 5 kHz and digitized at 32.5 kHz. Raccess and Rseal were monitored throughout the recording and cells with Raccess>10 MΩ or Rseal<200 MΩ were terminated automatically by script.
Voltage Dependent Block (VDB): VDB protocols used a depolarized voltage to keep channels in half-inactivated (resting) states. This allowed equilibrium binding and accurate determination of isoform selectivity (in the absence of biological features).

[4] = tested on: healthy participants; test: 2-part Phase 1 trial (28 days; OXC combination): qEEG and ASSR pharmacodynamics; type: in vivo, human; conditions: Part A, 90 mg QD 28 days
From the text: as §1

T1 sequence (Q9UQD0 whole entry): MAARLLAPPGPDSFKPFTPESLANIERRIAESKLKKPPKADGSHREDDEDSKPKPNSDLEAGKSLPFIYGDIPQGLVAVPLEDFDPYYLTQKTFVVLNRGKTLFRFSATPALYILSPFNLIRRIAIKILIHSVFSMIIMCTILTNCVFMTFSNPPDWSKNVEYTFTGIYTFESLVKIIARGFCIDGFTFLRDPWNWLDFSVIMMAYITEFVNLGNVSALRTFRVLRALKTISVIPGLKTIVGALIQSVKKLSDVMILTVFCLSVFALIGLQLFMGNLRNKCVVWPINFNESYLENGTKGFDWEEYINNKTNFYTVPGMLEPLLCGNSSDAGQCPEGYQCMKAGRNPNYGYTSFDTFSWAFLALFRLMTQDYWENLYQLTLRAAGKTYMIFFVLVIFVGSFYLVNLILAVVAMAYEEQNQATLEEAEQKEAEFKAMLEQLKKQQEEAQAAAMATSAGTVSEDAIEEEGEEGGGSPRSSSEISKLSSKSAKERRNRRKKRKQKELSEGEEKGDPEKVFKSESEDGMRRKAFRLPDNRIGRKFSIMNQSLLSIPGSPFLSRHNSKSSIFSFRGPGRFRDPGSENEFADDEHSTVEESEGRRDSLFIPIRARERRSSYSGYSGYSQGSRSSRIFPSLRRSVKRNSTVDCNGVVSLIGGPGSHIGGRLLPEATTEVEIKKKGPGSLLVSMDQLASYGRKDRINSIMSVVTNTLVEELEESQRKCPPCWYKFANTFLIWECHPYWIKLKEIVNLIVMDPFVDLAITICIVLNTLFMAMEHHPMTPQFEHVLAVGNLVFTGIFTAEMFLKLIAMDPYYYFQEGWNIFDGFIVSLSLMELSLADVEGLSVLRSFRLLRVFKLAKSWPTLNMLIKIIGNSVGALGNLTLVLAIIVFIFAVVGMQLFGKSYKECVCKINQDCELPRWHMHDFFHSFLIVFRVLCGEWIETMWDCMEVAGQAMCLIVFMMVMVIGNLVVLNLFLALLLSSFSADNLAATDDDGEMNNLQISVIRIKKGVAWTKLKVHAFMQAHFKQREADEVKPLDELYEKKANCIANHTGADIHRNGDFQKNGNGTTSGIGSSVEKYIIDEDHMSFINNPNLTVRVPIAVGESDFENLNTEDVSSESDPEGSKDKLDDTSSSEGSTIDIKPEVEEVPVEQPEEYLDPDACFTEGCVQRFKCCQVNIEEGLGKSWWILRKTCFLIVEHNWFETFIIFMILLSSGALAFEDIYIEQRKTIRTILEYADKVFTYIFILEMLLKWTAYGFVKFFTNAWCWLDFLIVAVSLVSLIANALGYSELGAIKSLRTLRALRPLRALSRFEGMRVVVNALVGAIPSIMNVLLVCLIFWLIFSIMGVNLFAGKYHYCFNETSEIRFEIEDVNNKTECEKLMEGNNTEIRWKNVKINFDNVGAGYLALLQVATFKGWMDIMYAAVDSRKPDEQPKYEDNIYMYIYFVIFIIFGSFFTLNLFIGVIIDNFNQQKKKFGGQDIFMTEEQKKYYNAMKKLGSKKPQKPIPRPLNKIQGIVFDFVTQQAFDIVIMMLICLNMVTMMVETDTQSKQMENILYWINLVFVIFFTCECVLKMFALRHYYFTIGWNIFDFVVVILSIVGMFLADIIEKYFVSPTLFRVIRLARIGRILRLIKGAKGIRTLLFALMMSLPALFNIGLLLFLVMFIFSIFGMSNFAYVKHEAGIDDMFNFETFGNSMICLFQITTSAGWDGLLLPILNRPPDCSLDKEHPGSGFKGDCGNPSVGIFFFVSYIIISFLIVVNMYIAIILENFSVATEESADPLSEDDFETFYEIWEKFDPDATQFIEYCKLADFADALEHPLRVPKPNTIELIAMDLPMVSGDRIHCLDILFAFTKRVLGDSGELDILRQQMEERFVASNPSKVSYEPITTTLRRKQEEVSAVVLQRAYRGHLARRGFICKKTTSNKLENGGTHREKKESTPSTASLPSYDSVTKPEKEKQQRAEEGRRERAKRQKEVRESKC

## CCOC(F)(F)c1nnc2cnc(-c3cnc(OCC(F)(F)F)c(F)c3)cn12 [Compound 1, 3-(ethoxydifluoromethyl)-6-(5-fluoro-6-(2,2,2-trifluoroethoxy)pyridin-3-yl)-[1,2,4]triazolo[4,3-a]pyrazine]
[1]; healthy adults, oral, single 2.5-150 mg, multiple 30-120 mg QD
  exposure over the evaluated dose range: increased dose proportionally
[1]; single 90-mg dose
  increase in AUC, fed vs fasted state: 14%
  increase in Cmax, fed vs fasted state: 9%
[2]; 90 mg, Part A
  tolerability in healthy adults: well tolerated
[2]; Part A
  TEAEs mild in severity: 71%
  TEAEs moderate: 29%
  TEAEs severe: 0%
  number of TEAEs: 35
[2]; Part A (n=30 enrolled)
  participants with TEAEs: 13
[2]; Part A, 90 mg QD vs placebo
  TEAEs mild or moderate: 100%
[2]; Part B
  review of ALT/AST increases and rhabdomyolysis, causal association: did not identify a causal association
[2]; Part B, OXC + 120 mg Compound 1 vs OXC alone
  TEAEs mild or moderate: 96%
[2]; Part B, both arms
  TEAEs mild in severity: 51%
  TEAEs moderate: 45%
  TEAEs severe: 4%
  number of TEAEs: 74
[2]; Part B, both arms (n=18 enrolled)
  participants with TEAEs: 16
[2]; Parts A and B
  safety findings in vital signs, physical exams, ECGs, C-SSRS: no clinically significant safety findings
[3]; hNaV1.6
  Ratio to Pers. INa (Peak INa VDB / persistent INa): 2.2
[3]; hNaV1.6, half-inactivated (V1/2)
  IC50: 317 nM
[4]
  qEEG (Delta and Theta power) and ASSR (PLF and Evoked Power) vs placebo: Statistically significant differences
